Assay results from ChEMBL document CHEMBL1141442, “Structure elucidation of a dihydropyranone from Tapinanthus dodoneifolius” (J Nat Prod, 2007).

Organism: Rattus norvegicus
Test: Vasorelaxant effect on norepinephrine induced-contraction in Wistar rat aortic rings
Format: functional, organism-based
Settings: Aorta

IC50: 81.4 µM
SMILES: O=C1C=CC[C@H](C[C@@H](O)CCc2ccc(O)cc2)O1
